This assay concerns nerve-ligation induced pain (rat model of spinal nerve ligation, SNL). Nature of the assay: Neuropathic pain model (Chung model): rat spinal nerve ligation, mechanical allodynia by Von Frey hairs. It counts as in vivo. Conditions: for reversed pain in the Chung model: 1 mg/kg, time not given. How it is done:
[drawing 23] and all racemic mixtures of the two optical isomers are also included. Analgesic Activity in the Neuropathic Pain Model (the Chung Model)
Several of the compounds disclosed herein were tested in the rat model of spinal nerve ligation (SNL) which involves a traumatic partial nerve injury, involving tight ligation of the L5 and L6 spinal nerves (Kim and Chung, 1992). Pain, including mechanical allodynia and thermal hyperalgesia, persists in the absence of ongoing tissue injury for more than 2 months following the surgery. The ability of the drug to alleviate the mechanical allodynia was assessed using a series of Von Frey hairs applied to the mid-plantar area of the ipsilateral hind paw before and after drug administration. The paw withdrawal threshold was determined using a standard up-down testing method (Dixon, 1980) and expressed relative to the paw withdrawal threshold in uninjured rats.
• Kim S H, Chung J M. An experimental model for peripheral neuropathy produced by segmental spinal nerve ligation in the rat, Pain 1992; 50 (3): 355-63. • Dixon W J. Efficient analysis of experimental observations. Annu Rev Pharmacol Toxicol 1980; 20: 441-62.

From US8168631B2, “3-(4-fluorophenyl)-3-hydroxy-2-amino-propionic acid amides and related compounds having analgesic activity” (Allergan, Inc., priority 2008, dated 2012) come the findings set out here.

The structures appear in SMILES notation. Where a name gives a salt, the structure may show the parent alone.

As to `N[C@@H](C(=O)N1CCCC1)[C@@H](O)c1ccc(F)cc1` (racemic) [Compound 1, (±)-threo-2-Amino-3-(4-fluorophenyl)-3-hydroxy-1-(pyrrolidin-1-yl)propan-1-one hydrochloride], the “reversed pain in the Chung model” value is listed as 64%. For the same compound, the “Percent pain reversal at time in min” value (dose 0.3 mg/kg, 15 min) was found to be 17%. Besides, the “Percent pain reversal at time in min” value (dose 0.3 mg/kg, 30 min) was determined as 29%. Besides, the “Percent pain reversal at time in min” value (dose 0.3 mg/kg, 60 min) was found to be 52%. The “Percent pain reversal at time in min” value (dose 1 mg/kg, 15 min) is listed as 28%. Moreover, the “Percent pain reversal at time in min” value (dose 1 mg/kg, 30 min) is 52%. Under “dose 1 mg/kg, 60 min”, the “Percent pain reversal at time in min” value amounted to 64%.

As for `N[C@@H](C(=O)N1CCCC1)[C@@H](O)c1ccc(Cl)cc1` (racemic) [reference compound], the “Percent pain reversal at time in min” value is, setting by setting: (dose 0.3 mg/kg, 15 min) 4.8%; (dose 0.3 mg/kg, 30 min) 7.5%; (dose 0.3 mg/kg, 60 min) 8.6%.

In the case of `N[C@@H](C(=O)N1CCCC1)[C@@H](O)c1ccc(F)cc1` [Compound 3, (−)-threo-2-Amino-3-(4-fluorophenyl)-3-hydroxy-1-(pyrrolidin-1-yl)propan-1-one hydrochloride], the “reversed pain in the Chung model” value came to 86%. Further, the “Percent pain reversal at time in min” value (dose 0.1 mg/kg, 15 min) amounted to 1.2%. For the same compound, the “Percent pain reversal at time in min” value (dose 0.1 mg/kg, 30 min) stood at 20.2%. Further, the “Percent pain reversal at time in min” value (dose 0.1 mg/kg, 60 min) was determined as 43.2%. The “Percent pain reversal at time in min” value (dose 0.3 mg/kg, 15 min) was determined as 26.7%. The “Percent pain reversal at time in min” value (dose 0.3 mg/kg, 30 min) came out at 53.6%. Also, under “dose 0.3 mg/kg, 60 min”, the “Percent pain reversal at time in min” value amounted to 75.5%. Besides, the “Percent pain reversal at time in min” value (dose 1 mg/kg, 15 min) is recorded as 57.2%. Also, under “dose 1 mg/kg, 30 min”, the “Percent pain reversal at time in min” value is 73.5%. Further, where the note is “dose 1 mg/kg, 60 min”, the “Percent pain reversal at time in min” value was determined as 86.2%.

As for `N[C@@H](C(=O)N1CCCC1)[C@@H](O)c1ccc(I)cc1` (racemic) [reference compound], the “Percent pain reversal at time in min” value reads like this: (dose 0.3 mg/kg, 15 min) 4.3%; (dose 0.3 mg/kg, 30 min) 5.8%; (dose 0.3 mg/kg, 60 min) 7.3%.
